Assay results taken from patent publication US10604528B2, “Galunisertib crystalline form, preparation method thereof and use thereof” (Crystal Pharmaceutical (Suzhou) Co., Ltd., priority 2016, dated 2020).
Converted amounts (≈) assume the structure as drawn. “Also recorded” adds a separate entry of the source. Like-named read-outs stand apart in the source and are kept apart here.

Experiments:
Type in all cases: physicochemical
[1] = Kinetic solubility in FaSSIF, FeSSIF and water (HPLC)
Description: Form A of the present disclosure and Form 1 of the prior art were suspended into FaSSIF (Fasted state simulated intestinal fluids, pH=6.5), FeSSIF (Fed state simulated intestinal fluids, pH=5.0), SGF (Simulated gastric fluids, pH=1.8) and water to get saturated solutions. After equilibrated for 1 h, 4 h and 24 h, concentrations of the saturated solutions were measured by HPLC.

[2] = Hygroscopicity by dynamic vapor sorption (DVS); settings: for Hygroscopicity class / Weight gain at 80% RH: 80% RH; for Hygroscopicity class: Chinese Pharmacopoeia 2015 definition; for Weight gain at 80% RH / Weight gain at 95% RH: DVS
Description: Dynamic vapor sorption (DVS) was applied to test hygroscopicity of Form A and Form 1 disclosed in WO2007018818A1 with about 10 mg of samples.
Description and definition of hygroscopicity (Chinese Pharmacopoeia 2015 edition, 9103 General drug hygroscopic test guidelines, test at 25° C.±1° C., 80% RH).

[3] = Long-term and accelerated solid-state stability (XRPD)
Description: Solid samples of Form A and Form 1 were stored under different conditions of 25° C./60% RH, 40° C./75% RH. 60° C./75% RH and 80° C.

[4] = Particle size distribution (laser particle size analyzer, wet process)
Description: The particle size distribution test in the present disclosure is acquired by the S3500 laser particle size analyzer of Microtrac. Microtrac S3500 is equipped with the SDC (Sample Delivery Controller). The test is carried out by wet process, and the dispersion medium is Isopar G. The parameters are as follow: […]

[5] = Mechanical stability (manual grinding, XRPD); settings: ground manually for 5 minutes in mortar
Description: Solid sample of Form A of the present disclosure was ground manually for 5 minutes in mortar. The XRPD pattern overlay of the solids before and after grinding is substantially as depicted in FIG. 9 (top: XRPD pattern before grinding, bottom: XRPD pattern after grinding).

solubility ([1]; FaSSIF pH=6.5, 1 h) | solubility ([1]; FaSSIF pH=6.5, 4 h) | solubility ([1]; FaSSIF pH=6.5, 24 h) | solubility ([1]; FeSSIF pH=5.0, 1 h) | solubility ([1]; FeSSIF pH=5.0, 4 h) | solubility ([1]; FeSSIF pH=5.0, 24 h) | solubility ([1]; H2O, 1 h) | solubility ([1]; H2O, 4 h) | solubility ([1]; H2O, 24 h) | Weight gain at 80% RH [2] | Weight gain at 95% RH [2] | Solid form after storage ([3]; 25° C./60% RH, 12 months) | Solid form after storage ([3]; 40° C./75% RH, 12 months) | Solid form after storage ([3]; 60° C./75% RH, 2 weeks) | D10 ([4]; ultrasonication time 0 s) | D50 ([4]; ultrasonication time 0 s) | D90 ([4]; ultrasonication time 0 s) | MV (average particle size calculated by volume) ([4]; ultrasonication time 0 s) | Compound | Hygroscopicity class [2] | Solid form after storage ([3]; 80° C., 2 weeks) | other results
58 µg/mL (≈ 157 µM) | 51 µg/mL (≈ 138 µM) | 52 µg/mL (≈ 141 µM) | 120 µg/mL (≈ 325 µM) | 110 µg/mL (≈ 298 µM) | 120 µg/mL (≈ 325 µM) | 56 µg/mL (≈ 152 µM) | 55 µg/mL (≈ 149 µM) | 55 µg/mL (≈ 149 µM) | 0.33% | 0.53% | Form 1 | Form 1 | Form 1 | 33.41 μm | 56.97 μm | 95.11 μm | 62.25 μm | Cc1cccc(-c2nn3c(c2-c2ccnc4ccc(C(N)=O)cc24)CCC3)n1 [Form 1, 2-(6-methyl-pyridin-2-yl)-3-[6-amido-quinolin-4-yl)-5,6-dihydro-4H-pyrrolo[1,2-b]pyrazole, reference compound] | slightly hygroscopic | partially converts to Form A; also recorded: Form 1 + Form A | solubility ([1]; FaSSIF and water, pH 6.5, fassif, thermodynamic from solid, in both FaSSIF and H2O, all sampling points, read-out: solubility): < 60 µg/mL; D10 ([4]; ultrasonication time 30 s): 24.89 μm; D50 ([4]; ultrasonication time 30 s): 42.56 μm; D90 ([4]; ultrasonication time 30 s): 68.40 μm; MV (average particle size calculated by volume) ([4]; ultrasonication time 30 s): 45.75 μm; D10 ([4]; ultrasonication time 60 s): 22.40 μm; D50 ([4]; ultrasonication time 60 s): 37.88 μm; D90 ([4]; ultrasonication time 60 s): 59.87 μm; MV (average particle size calculated by volume) ([4]; ultrasonication time 60 s): 40.41 μm; D10 ([4]; ultrasonication time 90 s): 20.94 μm; D50 ([4]; ultrasonication time 90 s): 35.58 μm; D90 ([4]; ultrasonication time 90 s): 55.95 μm; MV (average particle size calculated by volume) ([4]; ultrasonication time 90 s): 37.83 μm
230 µg/mL (≈ 623 µM) | 270 µg/mL (≈ 731 µM) | 520 µg/mL (≈ 1410 µM) | 480 µg/mL (≈ 1300 µM) | 820 µg/mL (≈ 2220 µM) | 640 µg/mL (≈ 1730 µM) | 170 µg/mL (≈ 460 µM) | 250 µg/mL (≈ 677 µM) | 310 µg/mL (≈ 839 µM) | 0.15% | 0.23% | Form A | No form change; also recorded: Form A | Form A | 50.28 μm | 170.3 μm | 356.4 μm | 190.8 μm | Cc1cccc(-c2nn3c(c2-c2ccnc4ccc(C(N)=O)cc24)CCC3)n1 [Form A, 2-(6-methyl-pyridin-2-yl)-3-[6-amido-quinolin-4-yl)-5,6-dihydro-4H-pyrrolo[1,2-b]pyrazole] | non-hygroscopic or almost non-hygroscopic | Form A | Crystalline form (XRPD pattern) after grinding [5]: doesn't change significantly; also recorded: No form change; solubility relative to Form 1 ([1]; FaSSIF pH=6.5, 24 h): ten times higher than that of Form 1; Solid Form after DVS test ([2]; XRPD after DVS test): does not change after DVS test; also recorded: Form A (no change); Time the form keeps stable ([3]; 25° C./60% RH and 40° C./75% RH): at least 12 months; Time the form keeps stable ([3]; 60° C./75% RH and 80° C.): at least 2 weeks; D10 ([4]; ultrasonication time 30 s): 34.37 μm; D50 ([4]; ultrasonication time 30 s): 106.2 μm; D90 ([4]; ultrasonication time 30 s): 210.5 μm; MV (average particle size calculated by volume) ([4]; ultrasonication time 30 s): 116.1 μm; D10 ([4]; ultrasonication time 60 s): 29.37 μm; D50 ([4]; ultrasonication time 60 s): 92.81 μm; D90 ([4]; ultrasonication time 60 s): 192.2 μm; MV (average particle size calculated by volume) ([4]; ultrasonication time 60 s): 104.1 μm; D10 ([4]; ultrasonication time 90 s): 26.40 μm; D50 ([4]; ultrasonication time 90 s): 83.69 μm; D90 ([4]; ultrasonication time 90 s): 167.2 μm; MV (average particle size calculated by volume) ([4]; ultrasonication time 90 s): 91.94 μm
